Source: US20240174690A1, “ANNULATED 2-AMINO-3-CYANO THIOPHENES AND DERIVATIVES FOR THE TREATMENT OF CANCER” (BOEHRINGER INGELHEIM INTERNATIONAL GMBH, priority 2021, published 2024)

How the values were obtained:
CYP3A4 = CYP3A4 (Homo sapiens (Human), UniProt P08684); experiment: Mechanism based inhibition of CYP3A4 assay (MBI 3A4); type: in vitro ADME; details: hydroxy-midazolam formation after 30 min vs 0 min preincubation, 25 uM, human liver microsomes
How it was run: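 Readout is hydroxy-midazolam formed after 30 min preincubation relative to 0 min, measured by LC/MS-MS after acetonitrile quench. Following preincubation, samples diluted 1:10 and incubated 15 min with midazolam substrate.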

GP2D cells = experiment: GP2D proliferation assay (120 h) (colorectal cancer, G12D); type: cell-based
How it was run: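 500 cells/well in DMEM + GlutaMAX + 10% FCS, exposed to a logarithmic compound dose series (DMSO-normalized) for 120 h. Viability read by CellTiter-Glo luminescence as percent of DMSO control, with an untreated T0 read at dosing; IC50 from four-parameter non-linear regression.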

[1] = system: KRAS G12V-dependent Ba/F3 cells; experiment: Ba/F3 proliferation assay, KRAS G12V; type: cell-based; details: AlamarBlue;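 note: proliferation IC50 in KRAS G12V-dependent Ba/F3 cells read by AlamarBlue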
How it was run: (§1)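 Cells: murine Ba/F3 transduced with mutant KRAS by retrovirus, selected with 1 μg/mL puromycin, then weaned off IL-3. Compound exposure in duplicate, followed by AlamarBlue viability staining and curve fitting.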

[2] = system: KRAS G12D-dependent Ba/F3 cells; experiment: Ba/F3 proliferation assay, KRAS G12D; type: cell-based; details: AlamarBlue
How it was run: as §1

[3] = Metabolic (microsomal) stability assay, human liver microsomes (HLM); type: in vitro ADME; details: predicted clearance as percent of liver blood flow, 1 μM
How it was run: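 LC-MS/MS tracked parent disappearance at 0, 5, 15, 30 and 60 min in NADPH-initiated incubations with 1 mg/mL human microsomal protein and 1 μM compound at 37°C, pH 7.5. First-order fits gave intrinsic clearance, which was scaled up and reported as % QH. NADPH-free controls were also run.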

[4] = system: KRAS G12C-dependent Ba/F3 cells; experiment: Ba/F3 proliferation assay, KRAS G12C; type: cell-based; details: AlamarBlue
How it was run: as §1

Sequence of CYP3A4 (P08684 whole entry): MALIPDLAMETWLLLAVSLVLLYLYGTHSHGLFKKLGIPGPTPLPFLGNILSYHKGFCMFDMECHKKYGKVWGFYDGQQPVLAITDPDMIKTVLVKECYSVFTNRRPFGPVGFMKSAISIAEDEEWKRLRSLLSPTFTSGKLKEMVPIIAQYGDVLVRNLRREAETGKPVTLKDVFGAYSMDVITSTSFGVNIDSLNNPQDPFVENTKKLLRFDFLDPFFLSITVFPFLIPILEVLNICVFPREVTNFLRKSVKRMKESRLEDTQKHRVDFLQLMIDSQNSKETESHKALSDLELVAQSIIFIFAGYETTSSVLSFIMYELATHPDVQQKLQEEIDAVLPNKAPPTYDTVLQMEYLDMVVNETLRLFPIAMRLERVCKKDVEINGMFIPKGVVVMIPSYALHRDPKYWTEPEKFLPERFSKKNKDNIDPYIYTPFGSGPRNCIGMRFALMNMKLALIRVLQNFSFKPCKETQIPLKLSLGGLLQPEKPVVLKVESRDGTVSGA

SMILES | MBI 3A4 (CYP3A4) | IC50 (GP2D cells) | IC50 ([1]; Mus musculus, BaF3, 72 h) | IC50 ([2]; Mus musculus, BaF3, 72 h) | HLM QH [3] | IC50 ([4]; Mus musculus, BaF3, 72 h) | IC50 ([1]; 72 h) | IC50 ([2]; 72 h) | IC50 ([4]; 72 h)
C[C@H](Oc1cc(N2CCNC3(CCC3)C2)nc(-c2onc3c2CCC[C@@]32CCCc3sc(N)c(C#N)c32)n1)[C@@H]1CCCN1C [I-3] | 51% | 0.002 µM | 0.351 µM | 0.005 µM | <24% | 0.345 µM |  |  | 
C[C@H](Oc1cc(N2CCNC3(COC3)C2)nc(-c2onc3c2CCC[C@@]32CCCc3sc(N)c(C#N)c32)n1)[C@@H]1CCCN1C [I-4] | 64% | 0.001 µM | 0.134 µM | 0.009 µM | <24% | 0.069 µM |  |  | 
C[C@H](Oc1cc(-c2ccn(C)n2)nc(-c2onc3c2CCC[C@@]32CCCc3sc(N)c(C#N)c32)n1)[C@@H]1CCCN1C [I-21] | 40% | 0.546 µM |  |  | 44% |  | 0.006 µM | 0.014 µM | 0.006 µM
C[C@H](Oc1cc([C@@H]2CCOC2)nc(-c2onc3c2CCC[C@@]32CCCc3sc(N)c(C#N)c32)n1)[C@@H]1CCCN1C [I-22] |  | 0.027 µM | 0.009 µM | 0.014 µM | 37% | 0.009 µM |  |  | 
CO[C@@H]1C[C@@H]([C@H](C)Oc2cc(-c3ccn(C)n3)nc(-c3onc4c3CCC[C@@]43CCCc4sc(N)c(C#N)c43)n2)N(C)C1 [I-23] | 57% | 1.17 µM | 0.007 µM | 0.027 µM | 45% | 0.01 µM |  |  | 
C[C@H](Oc1cc(-c2ccn(C[C@@H](C)O)n2)nc(-c2onc3c2CCC[C@@]32CCCc3sc(N)c(C#N)c32)n1)[C@@H]1CCCN1C [I-30] | 77% | 0.811 µM | 0.008 µM | 0.042 µM | <24% | 0.009 µM |  |  | 
C[C@H](O)Cn1ccc(-c2cc(O[C@@H](C)[C@@H]3CCCN3C)nc(-c3onc4c3CCC[C@@]43CCCc4sc(N)c(C#N)c43)n2)n1 [I-31] | 67% | 0.588 µM | 0.009 µM | 0.043 µM | <24% | 0.009 µM |  |  | 
C[C@H](Oc1cc(-c2ccn3ncnc3c2)nc(-c2onc3c2CCC[C@@]32CCCc3sc(N)c(C#N)c32)n1)[C@@H]1CCCN1C [I-33] | 73% |  | 0.014 µM | 0.081 µM | <24% | 0.014 µM |  |  | 
C[C@H](Oc1cc(-c2ccn(C3COC3)n2)nc(-c2onc3c2CCC[C@@]32CCCc3sc(N)c(C#N)c32)n1)[C@@H]1CCCN1C [I-34] | 67% | 0.872 µM | 0.014 µM | 0.038 µM | <24% | 0.007 µM |  |  | 
C[C@H](Oc1cc(N2CCN(C)C3(COC3)C2)nc(-c2onc3c2CCC[C@@]32CCCc3sc(N)c(C#N)c32)n1)[C@@H]1C[C@@H](F)CN1C [I-37] | 45% | 0.024 µM | 1.34 µM | 0.078 µM | 51% | 1.18 µM |  |  | 
C[C@H](Oc1cc(N2CCN(C)C3(CC3)C2)nc(-c2onc3c2CCC[C@@]32CCCc3sc(N)c(C#N)c32)n1)[C@@H]1C[C@@H](F)CN1C [I-39] | 37% | 0.017 µM | 0.895 µM | 0.034 µM | 39% | 0.613 µM |  |  | 
C[C@H](Oc1cc(N2CCN(C)C3(CC3)C2)nc(-c2onc3c2CCC[C@@]32CCCc3sc(N)c(C#N)c32)n1)[C@@H]1CCCN1C [I-41] | 68% | 0.008 µM | 0.445 µM | 0.011 µM | <24% | 0.233 µM |  |  | 
C[C@H](Oc1cc(N2C[C@H](C)N(C)[C@@H](C)C2)nc(-c2onc3c2CCC[C@@]32CCCc3sc(N)c(C#N)c32)n1)[C@@H]1CCCN1C [I-43] | 64% | 0.143 µM | 0.302 µM | 0.063 µM | <24% | 0.17 µM |  |  | 
C[C@H](Oc1cc(N2CCNC3(CC3)C2)nc(-c2onc3c2CCC[C@@]32CCCc3sc(N)c(C#N)c32)n1)[C@@H]1C[C@@H](F)CN1C [I-45] |  | 0.002 µM | 0.453 µM | 0.011 µM | 45% | 0.28 µM |  |  | 
CO[C@H]1CCN(C)[C@@H]1[C@H](C)Oc1cc(N2CCNC3(CC3)C2)nc(-c2onc3c2CCC[C@@]32CCCc3sc(N)c(C#N)c32)n1 [I-49] |  | 0.001 µM | 0.184 µM | 0.003 µM | 40% | 0.13 µM |  |  | 
CO[C@@H]1C[C@@H]([C@H](C)Oc2cc(N3CCN(C)C4(CC4)C3)nc(-c3onc4c3CCC[C@@]43CCCc4sc(N)c(C#N)c43)n2)N(C)C1 [I-50] |  | 0.01 µM | 0.811 µM | 0.041 µM | 44% | 0.448 µM |  |  | 

SMILES | MBI 3A4 (CYP3A4) | IC50 (GP2D cells) | IC50 ([1]; Mus musculus, BaF3, 72 h) | IC50 ([2]; Mus musculus, BaF3, 72 h) | HLM QH [3] | IC50 ([4]; Mus musculus, BaF3, 72 h) | IC50 ([1]; 72 h) | IC50 ([2]; 72 h) | IC50 ([4]; 72 h)
C[C@H](Oc1cc(N2C[C@@H](N(C)C)[C@@H](F)C2)nc(-c2noc3c2CCC[C@@]32CCCc3sc(N)c(C#N)c32)n1)[C@@H]1CCCN1C [II-11] |  | 0.078 µM | 0.324 µM | 0.085 µM | <24% | 0.241 µM |  |  | 
C[C@H]1CN(C)CCCN1c1cc(N2CC[C@H](N(C)C)C2)nc(-c2noc3c2CCC[C@@]32CCCc3sc(N)c(C#N)c32)n1 [II-16] |  | 0.056 µM | 1.64 µM | 0.183 µM | <24% | 1.57 µM |  |  | 
C[C@@H]1CN(c2cc(O[C@@H](C)[C@@H]3C[C@@H](F)CN3C)nc(-c3noc4c3CCC[C@@]43CCCc4sc(N)c(C#N)c43)n2)CC2(CC2)N1 [II-17] |  | 0.006 µM | 0.422 µM | 0.039 µM | 63% | 0.373 µM |  |  | 
C[C@H](Oc1cc(N2C[C@H](C)NC3(CC3)C2)nc(-c2noc3c2CCC[C@@]32CCCc3sc(N)c(C#N)c32)n1)[C@@H]1C[C@@H](F)CN1C [II-18] |  | 0.002 µM | 0.438 µM | 0.02 µM | 58% | 0.429 µM |  |  | 
C[C@H](Oc1cc(-n2ccc(C(=O)N3CCCC3)n2)nc(-c2noc3c2CCC[C@@]32CCCc3sc(N)c(C#N)c32)n1)[C@@H]1CCCN1C [II-19] |  | 0.136 µM | 0.003 µM | 0.01 µM | 30% | 0.005 µM |  |  | 
C[C@H](Oc1cc(-n2ccc(C(=O)NC3COC3)n2)nc(-c2noc3c2CCC[C@@]32CCCc3sc(N)c(C#N)c32)n1)[C@@H]1CCCN1C [II-25] | 77% |  | 0.004 µM | 0.025 µM | <24% | 0.003 µM |  |  | 
C[C@H](Oc1cc(-n2ccc(C(=O)NC3(C)COC3)n2)nc(-c2noc3c2CCC[C@@]32CCCc3sc(N)c(C#N)c32)n1)[C@@H]1CCCN1C [II-26] | 58% |  | 0.003 µM | 0.037 µM | <24% | 0.005 µM |  |  | 
CN[C@H]1CCN(c2cc(O[C@@H](C)[C@@H]3CCCN3C)nc(-c3noc4c3CCC[C@@]43CCCc4sc(N)c(C#N)c43)n2)C1 [II-35] |  | 0.031 µM | 1.68 µM | 0.082 µM | <24% | 1.29 µM |  |  | 
C[C@H](Oc1cc([C@@H]2CCN(C)C2)nc(-c2noc3c2CCC[C@@]32CCCc3sc(N)c(C#N)c32)n1)[C@@H]1CCCN1C [II-37] | 81% |  | 0.177 µM | 0.026 µM | <24% | 0.132 µM |  |  | 
C[C@H](Oc1cc([C@H]2CCN(C)C2)nc(-c2noc3c2CCC[C@@]32CCCc3sc(N)c(C#N)c32)n1)[C@@H]1CCCN1C [II-38] |  | 0.004 µM | 0.056 µM | 0.011 µM | <24% | 0.066 µM |  |  | 
C[C@H](Oc1cc(N2CCNC3(CCC3)C2)nc(-c2noc3c2CCC[C@@]32CCCc3sc(N)c(C#N)c32)n1)[C@@H]1CCCN1C [II-40] |  | 0.005 µM | 0.456 µM | 0.007 µM | <24% | 0.381 µM |  |  | 
C[C@H](Oc1cc(-c2ccn([C@H]3CCCOC3)n2)nc(-c2noc3c2CCC[C@@]32CCCc3sc(N)c(C#N)c32)n1)[C@@H]1CCCN1C [II-42] | 63% |  | 0.005 µM | 0.026 µM | <24% | 0.034 µM |  |  | 
C[C@H](Oc1cc(-c2ccn(C[C@@H]3CCCO3)n2)nc(-c2noc3c2CCC[C@@]32CCCc3sc(N)c(C#N)c32)n1)[C@@H]1CCCN1C [II-43] | 70% |  | 0.008 µM | 0.034 µM | <24% | 0.037 µM |  |  | 
C[C@H](Oc1cc(C2CCCO2)nc(-c2noc3c2CCC[C@@]32CCCc3sc(N)c(C#N)c32)n1)[C@@H]1CCCN1C (stereo partly shown) [II-44] | 71% |  | 0.014 µM | 0.032 µM | 31% | 0.028 µM |  |  | 
C[C@H](Oc1cc(N2CC[C@@H](N(C)C)C2)nc(-c2noc3c2CCC[C@@]32CCCc3sc(N)c(C#N)c32)n1)[C@@H]1CCCN1C [II-47] |  | 0.105 µM | 0.164 µM | 0.04 µM | <24% | 0.24 µM |  |  | 
